Test results taken from the NIST ThermoML archive (doi:10.1016/j.fluid.2012.01.007).

Test: excess molar enthalpy (molar enthalpy of mixing); xn = mol fraction of the nth substance listed
Details: 101 kPa, Liquid, Flow calorimetry

C1CCCCC1 [cyclohexane] + CCCCCO
x2 = 0
Details	excess molar enthalpy [kcal/mol]
298.15 K	0
313.15 K	0

CCCCCO [pentan-1-ol] + C1CCCCC1
excess molar enthalpy [kcal/mol]
Details	298.15 K	313.15 K
x1 = 0.05	0.0797	0.107
x1 = 0.1	–	0.139
x1 = 0.1001	0.105	–
x1 = 0.1501	0.124	0.161
x1 = 0.2021	–	0.177
x1 = 0.2022	0.139	–
x1 = 0.2522	0.149	0.188
x1 = 0.3022	0.155	0.193
x1 = 0.3521	–	0.196
x1 = 0.3523	0.158	–
x1 = 0.4022	–	0.194
x1 = 0.4023	0.157	–
x1 = 0.4522	–	0.187
x1 = 0.4523	0.153	–
x1 = 0.5022	0.146	0.178
x1 = 0.5522	0.137	0.17
x1 = 0.6022	0.126	0.152
x1 = 0.6519	–	0.139
x1 = 0.6522	0.113	–
x1 = 0.7019	–	0.118
x1 = 0.7022	0.0982	–
x1 = 0.7521	–	0.0985
x1 = 0.7522	0.083	–
x1 = 0.8021	0.065	0.0799
x1 = 0.8501	0.0493	0.0598
x1 = 0.9	0.033	0.0381
x1 = 0.95	0.0162	0.0191
x1 = 1	0	0

CCCCCO [pentan-1-ol] + Cc1ccccc1
excess molar enthalpy [kcal/mol]
Details	298.15 K	313.15 K
x1 = 0.0511	0.129	0.143
x1 = 0.1004	0.182	0.211
x1 = 0.1497	0.211	–
x1 = 0.1498	–	0.252
x1 = 0.2012	0.232	–
x1 = 0.2013	–	0.279
x1 = 0.2507	0.244	–
x1 = 0.2508	–	0.294
x1 = 0.3003	0.251	0.299
x1 = 0.35	0.254	0.299
x1 = 0.3999	–	0.3
x1 = 0.4018	0.249	–
x1 = 0.4516	0.242	–
x1 = 0.4518	–	0.287
x1 = 0.5016	0.229	0.277
x1 = 0.5517	0.214	0.26
x1 = 0.6018	0.195	–
x1 = 0.6019	–	0.24
x1 = 0.65	0.174	–
x1 = 0.6501	–	0.216
x1 = 0.7003	0.151	–
x1 = 0.7004	–	0.19
x1 = 0.7507	0.126	–
x1 = 0.7508	–	0.159
x1 = 0.8012	0.0992	–
x1 = 0.8013	–	0.129
x1 = 0.8497	0.0747	–
x1 = 0.8498	–	0.0978
x1 = 0.9004	0.0485	–
x1 = 0.9005	–	0.0638
x1 = 0.9491	0.0243	–
x1 = 0.9492	–	0.0315
x1 = 1	0	0

Cc1ccccc1 [toluene] + CCCCCO
x2 = 0
Details	excess molar enthalpy [kcal/mol]
298.15 K	0
313.15 K	0
